For the assay, the system named is double transgenic rats over-expressing both, the gene for human renin and the gene for human angiotensinogen. Nature of the assay: Urinary albumin excretion (albuminuria) in double transgenic rat model of malignant hypertension with renal complications. The class given is in vivo. The source says: An animal model for spontaneously malignant hypertension with renal complications is represented by double transgenic rats over-expressing both, the gene for human renin and the gene for human angiotensinogen. This double transgenic rat strain is produced by crossbreeding two transgenic strains, one for human angiotensinogen with the endogenous promoter and one for human renin with the endogenous promoter. Neither single transgenic strain is hypertensive. […] The fact that human renin can be studied in the rat is a unique feature of this model and allows the extrapolation to clinical high renin hypertension. […] Each agent can be tested over a wide range of dosages to determine the optimal drug level for each agent in combination to elicit the maximal response. Each study group is best performed in which the effects of the combination treatment group are determined at the same time as the individual components are evaluated. Although drug effects may be observed upon short term treatment, it is preferable to observe responses in a chronic setting as shown below in which experiments were done over a three to seven week observation period. The long-term duration study is of sufficient duration to allow for the full development of compensatory responses to occur and therefore, the observed effect will most likely depict the actual responses of the test system representing sustained or persistent effects. The combination therapy can be compared to that of the respective monotherapies by determining the maximum change in 24 hour urinary protein content at a given day. All values are represented as the group mean±standard error of the mean (SEM). Statistical significance is obtained when p<0.05. The albuminuria values for each of the treatment groups can be compared statistically using a one-way ANOVA followed by the appropriate post-hoc analysis, for example by performing a Bonferoni test. Four week old double transgenic rats were treated daily by oral gavage with SPP100/aliskiren at a dose of 10 mg/kg, SPP301/avosentan at doses of 10 and 30 mg/kg and combinations of SPP100/aliskiren with SPP301/avosentan at the same doses. After three, five and seven weeks of drug treatment, 24 hour urine samples are collected using metabolic cages. The urinary albumin content is measured by ELISA using a commercial kit ([…] GmbH, Luckenwalde, Germany).

As to `COCCCOc1cc(C[C@@H](C[C@H](N)[C@@H](O)C[C@H](C(=O)NCC(C)(C)C(N)=O)C(C)C)C(C)C)ccc1OC` [SPP100, aliskiren], the “Albuminuria: mean ± SEM” value is given as 469 ± 64 ug/24 h (SPP100 10 mg/kg daily oral gavage, Baseline, 24 h urine, ELISA); 3046 ± 734 ug/24 h (SPP100 10 mg/kg daily oral gavage, treatment week 3); 12356 ± 3194 ug/24 h (SPP100 10 mg/kg daily oral gavage, treatment week 5); 22268 ± 5067 ug/24 h (SPP100 10 mg/kg daily oral gavage, treatment week 7). The “mean urinary albumin excretions” value (SPP100/aliskiren 10 mg/kg daily oral, after seven weeks of treatment) was “up to 22.3 mg”.
For `COc1ccccc1Oc1c(NS(=O)(=O)c2ccc(C)cn2)nc(-c2ccncc2)nc1OC` [SPP301, 5-methyl-pyridine-2-sulfonic acid [6-methoxy-5-(2-methoxy-phenoxy)-2-pyridin-4-yl-pyrimidin-4-yl]-amide], the “Albuminuria: mean ± SEM” value was determined as 422 ± 128 ug/24 h (SPP301 10 mg/kg daily oral gavage, Baseline); 14213 ± 4658 ug/24 h (SPP301 10 mg/kg daily oral gavage, treatment week 3); 38936 ± 7988 ug/24 h (SPP301 10 mg/kg daily oral gavage, treatment week 5); 38980 ± 9642 ug/24 h (SPP301 10 mg/kg daily oral gavage, treatment week 7); 413 ± 151 ug/24 h (SPP301 30 mg/kg daily oral gavage, Baseline); 11824 ± 2343 ug/24 h (SPP301 30 mg/kg daily oral gavage, treatment week 3). In addition, the “Albuminuria: mean ± SEM” value reads like this: (SPP301 30 mg/kg daily oral gavage, treatment week 5) 43160 ± 10250 ug/24 h; (SPP301 30 mg/kg daily oral gavage, treatment week 7) 37416 ± 16057 ug/24 h. In addition, where the note is “SPP301/avosentan at 10 or 30 mg/kg daily dosing”, the urinary albumin contents is on record as ≤ 39 mg.
